In patent US8778889B2, “Antimicrobial decapeptide oral hygiene treatment” (The United States of America as represented by the …, priority 2003, dated 2014):
Ends that are not written are not given here.

Columns and labels:
[1] = test system: VRE ATCC #51299; type: cell-based, Enterococci
From the text: (§1) As shown in the table below, many drug-resistant pathogens including multidrug-resistant Acinetobacter baumannii (clinical isolates) were susceptible to the bactericidal activity of the newly developed antimicrobial peptides. […] This is shown by their lower MIC and MBC against a number of antibiotic-resistant bacteria including methicillin-resistant Staphylococcus aureus, vancomycin-resistant Enterococci, and multidrug-resistant Acinetobacter baumannii. Many of these resistant strains are involved in nosocomial infections, which affect the immunocompromised and the elderly individuals with weakened defenses. The tests were done in a broth microdilution assay as described in our earlier publication (Concannon et al., 2003).

[2] = test system: VRE VVRAMC #7; type: cell-based, Enterococci
From the text: as §1

[3] = test system: VRE WRAMC #3; type: cell-based, Enterococci
From the text: as §1

[4] = test system: VRE WRAMC #6; type: cell-based, Enterococci
From the text: as §1

[5] = physchem; type: physicochemical; settings: for half-life at 200 μg/ml: buffer
Procedure: KSL was analyzed by RP-HPLC using a Prosphere C-18 analytical column (4.6×250 mm, Alltech, Deerfield, Ill.) with a Prosphere C-18 guard column (4.6×7.5 mm, Alltech, Deerfield, Ill.). A gradient elution was performed with mobile phase A (0.1% TFA in water) and mobile phase B (0.1% TFA in acetonitrile). KSL was eluted with a linear gradient from 80:20 to 70:30 (mobile phase A:B) for 8 min at a flow rate of 1.0 ml/min. Total run time was 16 min and the injection volume was 40 μl. Chromatograms were recorded by UV detection at 215 nm.
Test solutions of KSL were prepared using a stock peptide solution of 10 mg/ml in deionized water. The degradation of KSL peptide was investigated in sodium acetate (pH 4), sodium phosphate (pH 7.4) and sodium borate (pH 9) buffers at 0.1 M buffer concentration. Each buffer solution containing 200 μg/ml of KSL was incubated in a temperature-controlled oven at 25, 37 and 55° C., respectively. Samples were taken at pre-determined times and analyzed under HPLC conditions described above. The stability of KSL was studied at 37° C. in artificial saliva over a three day period. Artificial saliva was used in the in vitro release studies in an attempt to simulate actual conditions of use. The ingredients of the artificial saliva were as follows: sodium chloride, 0.844 g; potassium chloride, 1.200 g; calcium chloride dihydrate, 0.193 g; magnesium chloride hexahydrate, 0.111 g; potassium phosphate dibasic, 0.342 g; water to make to 1000 ml. The pH was adjusted with hydrochloric acid solution to pH 5.7±0.1 [26].

[6] = Procedure: The chewing gum formulations were prepared following a procedure described previously. The gum base was heated at a temperature between 50 and 60° C. for melting. When the gum base was of the proper fluid consistency, the KSL was added as a fine powder along with the other components. The temperature was kept constant while mixing the components with the gum base in a mortar. After mixing, the homogenous chewing gum mixture was extruded, cut into squares of approximate shape and size and hardened at room temperature overnight. The composition of the gum was as follows: 550 mg of gum base, 420 mg of sorbitol, 10 mg of mannitol, 10 mg of saccharin, and 10, 20 or 30 mg of KSL (total weight: approximately 1 g). In vitro release study of KSL from chewing gums was carried out using an in vitro chewing release apparatus consisting of two modules (AB FIA, Lund, Sweden) (FIG. 1). Each module consists of a thermostatted glass cell in which two vertically oriented pistons holding an upper and a lower chewing plate are mounted. The cells were filled with 40 ml of artificial saliva and the chewing gum was loaded onto the lower chewing surface. […] The released amount of KSL was determined by RP-HPLC.

In the case of “KKVVFKVKFK-NH2 [KSL, Lys-Lys-Val-Val-Phe-Lys-Val-Lys-Phe-Lys-NH2]”, the MBC [1] is reported as greater than 200 µg/mL, the MIC [1] is reported as greater than 200 µg/mL and the MBC [2] is reported as 100 µg/mL. The MBC [3] was greater than 200 µg/mL, the MIC [3] was greater than 200 µg/mL and the MBC [4] was 100 µg/mL. The half-life at 200 μg/ml ([5]; pH 4) was 165 days, the half-life at 200 μg/ml ([5]; pH 7.4) was 13.8 days and the half-life at 200 μg/ml ([5]; pH 9) was 4.7 days. For the same substance, the “Activation energy (Ea) of degradation” value ([5]; pH 4) was 6.7 kcal/mol and the “stability of KSL during the gum manufacturing process (HPLC of released KSL)” value [6] was “remains stable”.
